For data set [1], the system named is pNL-Bal HIV-1 virus. The data set is described as follows: microbe, parasite or virus in culture. As to conditions: Human immunodeficiency virus 1, BAL.
Description: (§3) Two compounds were evaluated for their activity as inhibitor of HIV replication on three different lab strains using the deCIPhR cellular format.
(§4) Compound stocks were prepared as 1.5 mM solution in 100% DMSO and vials were agitated for two hours at 50° C. Stock solutions were kept at −20° C., light protected as aliquots. Working dilutions (1/3 log) were prepared extemporaneously by serial dilutions in H2O/DMSO (95/5). Ten μL of working dilutions were then pipetted and directly tested for anti-HIV activity in the 200 μL final volume of the deCIPhR cellular assay format, yielding final concentrations of 7'500, 3'481, 1'616, 750, 348, 162, 75, 35, 16, 8 and 3 nM.
(§5) The DNA sequence coding for Vpu, Tat, Rev, Env, and Nef from the CCR5-tropic clone BAL2 (HIVBAL2A, Genbank accession number #M68894) was introduced by PCR-cloning into the reference proviral strain pNL4-3 (Genbank accession number #AF324493), where it replaced the corresponding region. Presence of insert was ascertained by restriction digest analysis and double sequencing on ABI 310 prism sequencer. After transfection, pNL-BaL produces a full-length infectious virus often used as reference for a B-Subtype, CCR5-tropic strain (Donaldson et al., 1994).
(§6) Principle of Dual-Enhancement of Cell-Infection to Phenotype Resistance (deCIPhR™): deCIPhR test is a proprietary assay system developed by InPheno AG (FIG. 7):
(§7) Fully infectious HIV-1 is produced from a proviral reference DNA reflecting a reference HIV-1 virus. Recombinants carrying an exchanged specific-sequence (e.g. mutants resistant to existing HIV-1 inhibitors or sequences issued from clinical situations) can easily be engineered by PCR-based amplification/ligation (see paragraph 3). The unique test format allows 3 to 5 rounds of viral replication and permits a dynamic parallel read-out of viral fitness and resistance to the respective drugs under investigation. Colorimetric readout (405 nm) is translated in percent viral inhibition through normalization with positive and negative control wells included in each 96 well-plate.
(§8) Each mutated proviral DNA is transfected into a human epitheloid cell line using lipofectant agent (lipofectamine 2000, Invitrogen) following the manufacturer's instructions. Cell to cell spread and replication of recombinant viruses is allowed for but also restricted to a period of four days in the absence or presence of specific drugs by co-culture with a second cell line expressing both chemokine receptors CXCR4 and CCR5. Finally, culture supernatants are transferred to a third reporter cell line also expressing both kinds of co-receptors. The infection is incubated for another 48 hours period, after which cells are fixed (formaldehyde/glutaraldehyde) prior to incubation with a chromogenic substrate for beta-galactosidase, typically ortho-nitrophenyl-galactopyranoside.
(§9) A range of twelve concentrations of each compound was tested in triplicates in the deCIPhR format on each mutated provirus.
(§10) The two compounds under investigation were tested along with reference compounds T20 and EFV on three wild-type viruses (pNL4-3, green curves; pNL-Bal, blue curves and pNL-AD87, orange curves) using the deCIPhR cellular system (see paragraph 4.1).
The subject of data set [2] is "G-I-A" mutant (pNL-Bal, gp41 V38A). As to conditions: for IC50: "G-I-A" mutant, R5; for Rf (resistance factor: IC50 on mutant virus / IC50 on reference strain): "G-I-A" vs pNL-Bal; for Resistance factor (IC50 mut/IC50 wt) IC50 fold increase: Table II, "G-I-A" vs wild-type pNL-Bal.
Data set [3] relates to pNL-Bal HIV-1 virus. As to conditions: for Rf (resistance factor): pNL-Bal reference strain, ratio to itself.
Description: as §3, §4, §5, §6, §7, §8, §9, §10
In data set [4] the test system is pNL-AD87 HIV-1 virus. The data set is described as follows: microbe, parasite or virus in culture. As to conditions: Human immunodeficiency virus 1.
Description: as §3, §4
(§11) The DNA sequence coding for Vpu, Tat, Rev, Env, and Nef from the CCR5-tropic clone AD87 (HIV strain AD8, Genbank accession number #AF004394) was introduced by PCR-cloning into the reference proviral strain pNL4-3 (Genbank accession number #AF324493), where it replaced the corresponding region. Presence of insert was ascertained by restriction digest analysis and double sequencing on ABI 310 prism sequencer. After transfection, pNL-AD87 produces a full-length infectious virus often used as reference for a B-Subtype, CCR5-tropic strain (Theodore et al., 1996).
as §6
(§12) Fully infectious HIV-1 is produced from a proviral reference DNA reflecting a reference HIV-1 virus. Recombinants carrying an exchanged specific-sequence (e.g. mutants resistant to existing HIV-1 inhibitors or sequences issued from clinical situations) can easily be engineered by PCR-based amplification/ligation (see paragraph 3). The unique test format allows 3 to 5 rounds of viral replication and permits a dynamic parallel read-out of viral fitness and resistance to the respective drugs under investigation. Colorimetric readout (405 nm) is translated in percent viral inhibition through normalization with positive and negative control wells included in each 96 well-plate. […]
Data set [5] has as its system pNL4-3 HIV-1 virus. Briefly: microbe, parasite or virus in culture. As to conditions: Human immunodeficiency virus 1.
Description: as §4
(§13) Fully infectious HIV-1 is produced from a proviral reference DNA reflecting a reference HIV-1 virus. […] The unique test format allows 3 to 5 rounds of viral replication and permits a dynamic parallel read-out of viral fitness and resistance to the respective drugs under investigation. Colorimetric readout (405 nm) is translated in percent viral inhibition through normalization with positive and negative control wells included in each 96 well-plate.
as §8, §9
In data set [6] the test system is pNL4-3 HIV-1 virus. The data set is described as follows: microbe, parasite or virus in culture. As to conditions: virus to cell infection, pNL4-3, X4 tropism. The format is cell-based. The procedure: Fully infectious HIV-1 is produced from proviral reference DNA reflecting a reference wild-type HIV-1 virus (pNL4-3, Genbank #AF003888).
(§1) Format for virus to cell infection: Briefly, the assay was performed in 6 well tissue culture plates and included 50'000 HIV-producing cells (HeLa) in a final volume of 2 mL DMEM medium (Gibco, Parsley, UK). After 2 days of incubation, […] of viral supernatant was added to 5'000 pre-incubated HIV-reporter cells (HeLaCCR5) in a final volume of […] of RPMI medium (Gibco, Parsley, UK) including […] of substances to be tested.
(§2) In this experiment only pNL4-3 reference HIV strain was used.
Graphs in FIG. 10 show the inhibition curves as percent of virus inhibition as a function of increasing concentrations of each compound. The table in FIG. 10 reports the calculated parameters of HIV inhibition (IC50, IC90 and Hill's coefficient).

Data set [7] relates to "D-I-A" mutant (pNL-Bal, gp41 G36D, V38A). As to conditions: for IC50: "D-I-A" mutant, R5; for Rf (resistance factor: IC50 on mutant virus / IC50 on reference strain): "D-I-A" vs pNL-Bal; for Resistance factor (IC50 mut/IC50 wt) IC50 fold increase: Table II, "D-I-A" vs wild-type pNL-Bal.
The subject of a further data set is binding of gp120 to α4β7. Briefly: gp120 binding to α4β7 in cell extracts (previous studies). As to conditions: read-out: activity of inhibition of the binding of gp120 to α4β7. Also noted: species or system human. The source says:
FIG. 37: Activity of a panel of inhibitors in blocking the binding of gp120 to a4b7. (a) The left chart depicts data collected in example 3 using ELISA assay. (b) The right chart depicts data collected by screening cell extracts. Bold letters used for a compound denote active compounds. The remaining compounds are weak or non-inhibitors All assays were repeated six times (three times for each anti-gp120 mAb used in the case of the ELISA data) and an average was presented. All values were obtained within 5% deviation.
This method was advanced into an ELISA format and applied to screen the number of compounds provided within the research period.
Outcome: Repandusinic acid A inhibited the binding of gp120 to α4β7 with an activity of 1.2±0.1 μM using the described an ELISA assay.
The five-step assay developed was applied to screen the panel of compounds provided. […] The experiments were run in triplicate using two antibodies against gp120. The data was compiled and plotted (FIG. 37a) and compared against the results with less accuracy obtained in our prior studies (FIG. 37b). Only modest changes were observed between the in vitro studies conducted herein (FIG. 37a) and those conducted on cell lysates (FIG. 37b). Results obtained are described in detail in the figure legend to FIG. 37 herein above.

The subject of data set [8] is HIV-reporter cells (HeLaCCR5). The data set is described as follows: cytotoxicity microscopically observed in virus-to-cell infection format. The format is cell-based. As to conditions: highest concentration. How it is done:
as §1, §2

Another data set relates to HIV. Briefly: profiling of anti-HIV activity, summary over lab strains. The format is cell-based, HIV-1. As to conditions: summary of Example 2 results.
The test system of another data set is deCIPhR cellular system. As to conditions: at tested concentrations.
Data set [9] deals with pNL-AD87 HIV-1 virus. As to conditions: cell to cell infection, pNL-AD87, R5 tropism.
Description: as §3, §4, §11, §6, §12
Data set [10] has as its system pNL4-3 HIV-1 virus. As to conditions: cell to cell infection, pNL4-3, X4 tropism.
Description: as §4, §13, §8, §9

Read-outs that look alike come from different tables or passages of the source. Some results are limits rather than exact numbers.

Excerpt for deCIPhR cellular system: as §8, §10

In the case of `O=C1Nc2ccc(Cl)cc2[C@@](C#CC2CC2)(C(F)(F)F)O1` [EFV, Efavirenz], the IC50 with pNL-Bal HIV-1 virus [1] (read-out: IC50 (concentration inhibiting 50% of viral replication)) was 5 nM; in [2], 1.7 nM; with pNL-AD87 HIV-1 virus [4] it was 1 nM; in the data set on pNL4-3 HIV-1 virus [5] it was 9 nM; in the data set on pNL4-3 HIV-1 virus [6] (Human immunodeficiency virus 1, read-out: IC50), 2 nM; in data set [7], 3 nM. Also, the “Rf (resistance factor: IC50 on mutant virus / IC50 on reference strain)” value was determined as 0.3 in [2] and 0.6 in data set [7]. The “Resistance factor (IC50 mut/IC50 wt) IC50 fold increase” value is reported as 0.3 in data set [2] and 0.5 in [7]. In addition, in the data set with pNL-Bal HIV-1 virus [3], the “Rf (resistance factor)” value amounted to 1.
For the compound `O=C(O)C=C(C(=O)OC1C2COC(=O)c3cc(O)c(O)c(O)c3-c3c(cc(O)c(O)c3O)C(=O)OC1C(O)C(OC(=O)c1cc(O)c(O)c(O)c1)O2)C1c2c(cc(O)c(O)c2O)C(=O)OC1C(=O)O` (stereo not shown) [Repandusinic acid A], in the data set on binding of gp120 to α4β7, the IC50 came to 9080 nM.
Regarding `O=C(CNC1CCCCC1)Nc1cccc(C(=O)Nc2cccc(C(F)(F)F)c2)c1` [T0520-5895], the signs of cytotoxicity result in data set [8] is listed as “signs of cytotoxicity”; in the data set on deCIPhR cellular system, “without signs of cytotoxicity”. The IC50 in the data set with pNL-Bal HIV-1 virus [1] (read-out: IC50, extrapolated value) was 15100 nM; in [2] it was 7600 nM; in the data set with pNL-AD87 HIV-1 virus [4], 250 nM; with pNL4-3 HIV-1 virus [5], > 30000 nM; with pNL4-3 HIV-1 virus [6] it was “inactive”; in [7], > 30000 nM. Further, the “Rf (resistance factor: IC50 on mutant virus / IC50 on reference strain)” value in data set [2] is reported as 0.5; in [7], >40. Besides, the “Resistance factor (IC50 mut/IC50 wt) IC50 fold increase” value is given as 0.5 in [2] and >40 in data set [7]. Also, the “Rf (resistance factor)” value in the data set with pNL-Bal HIV-1 virus [3] is reported as 1. In the data set with HIV, the anti-HIV activity entry was “significant anti-HIV activity”.
Turning to enfuvirtide, the IC50 worked out at 63 nM in the data set with pNL-AD87 HIV-1 virus [9]; 127 nM in [2]; 10 nM with pNL-Bal HIV-1 virus [3] (read-out: IC50 (concentration inhibiting 50% of viral replication), cell to cell infection, pNL-Bal, R5 tropism); 76 nM with pNL4-3 HIV-1 virus [10]; 48 nM in the data set on pNL4-3 HIV-1 virus [6] (read-out: IC50); 2270 nM in data set [7]. For the same compound, the “Rf (resistance factor: IC50 on mutant virus / IC50 on reference strain)” value stood at 12.7 in data set [2] and 227 in data set [7]. Also, the “Resistance factor (IC50 mut/IC50 wt) IC50 fold increase” value in [2] is reported as 13; in data set [7] it was 227. In addition, the “Rf (resistance factor)” value in the data set on pNL-Bal HIV-1 virus [3] stood at 1.

These data come from patent publication US9422527B2, “Drug target site within gp120 of HIV” (priority 2011, dated 2016).
